Reference: patent US20150105252A1, “SUBSTITUTED PYRAZOLES AS HERBICIDES” (E I DU PONT DE NEMOURS AND COMPANY, priority 2013, published 2015)

Assays:
corn [1] = test: Test A postemergence; type: in vivo, Zea mays; settings: Postemergence
Summary of the method: (§1)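 Seeds were sown in a loam soil–sand blend and given a directed soil spray preemergence; postemergence plants at 2–10 cm, one- to two-leaf stage, were sprayed with compound in non-phytotoxic solvent with surfactant. After about 10 days in a greenhouse, injury was visually rated against untreated controls (0 = no effect, 100 = complete control).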

morningglory [2] = test: Test C postemergence; type: in vivo, Ipomoea coccinea
Summary of the method: (§2)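 Visual rating, 0–100 scale (0 no effect, 100 complete control), vs untreated controls after 13–15 d greenhouse. Pre: seeds in loam/sand, treated at sowing. Post: plants in peat-based mix, 1- to 4-leaf (2–18 cm). Solvent + surfactant formulation, non-phytotoxic.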

barnyardgrass = test: Test C postemergence; type: in vivo, Echinochloa crus-galli
Summary of the method: as §2

nutsedge, yellow = test: Test C preemergence; type: in vivo, Cyperus esculentus; settings: preemergence
Summary of the method: as §2

galium [3] = test: Test C postemergence; type: in vivo, Galium aparine
Summary of the method: as §2

crabgrass, large [4] = test: Test A preemergence; type: in vivo, Digitaria sanguinalis; settings: preemergence
Summary of the method: as §1

blackgrass = test: Test C postemergence; type: in vivo, Alopecurus myosuroides
Summary of the method: as §2

corn [5] = test: Test C preemergence; type: in vivo, Zea mays; settings: preemergence
Summary of the method: as §2

foxtail, giant [6] = test: Test C postemergence; type: in vivo, Setaria faberii
Summary of the method: as §2

foxtail, giant [7] = test: Test A postemergence; type: in vivo, Setaria faberii; settings: Postemergence
Summary of the method: as §1

waterhemp = test: Test C preemergence; type: in vivo, Amaranthus rudis; settings: preemergence
Summary of the method: as §2

crabgrass, large [8] = test: Test A postemergence; type: in vivo, Digitaria sanguinalis; settings: Postemergence
Summary of the method: as §1

ryegrass, Italian = test: Test C preemergence; type: in vivo, Lolium multiflorum; settings: preemergence
Summary of the method: as §2

galium [9] = test: Test C preemergence; type: in vivo, Galium aparine; settings: preemergence
Summary of the method: as §2

wheat = test: Test A preemergence; type: in vivo, Triticum aestivum; settings: preemergence, 125 g ai/ha, visual injury approx. 10 days after treatment
Summary of the method: as §1

morningglory [10] = test: Test A postemergence; type: in vivo, Ipomoea spp.; settings: Postemergence
Summary of the method: as §1

[11] = 125 g ai/ha, 0 to 100 scale, 0 no effect, 100 complete control
[12] = 500 g ai/ha, 0 to 100 scale (0 no effect, 100 complete control)
[13] = Postemergence, 31 g ai/ha, visually evaluated after 13 to 15 days
[14] = postemergence, 62 g ai/ha, scale 0 to 100
[15] = postemergence, 250 g ai/ha, scale 0 to 100 (0 no effect, 100 complete control)
[16] = postemergence, 125 g ai/ha, scale 0 to 100, 0 no effect, 100 complete control
[17] = 31 g ai/ha, visual rating, scale 0 to 100 (0 no effect, 100 complete control), 13 to 15 days
[18] = 62 g ai/ha, scale 0 to 100 (0 no effect, 100 complete control), 13 to 15 days
[19] = 125 g ai/ha, 13 to 15 days, scale 0 to 100, 0 = no effect, 100 = complete control
[20] = 250 g ai/ha, scale 0 to 100, 0 is no effect, 100 is complete control

CCc1cc(C(=O)NCC(F)(F)F)nn1Cc1ccnc(SC(F)(F)F)c1 [Compound 214]
Corn plant response rating (corn [1]; [11]): 40 | Corn plant response rating (corn [1]; [12]): 90 | Plant response rating (scale of 0 to 100 where 0 is no effect and 100 is complete control), Morningglory (morningglory [2]; [13]): 75 | Morningglory plant response rating (morningglory [2]; [14]): 95 | Plant response rating, Morningglory (morningglory [2]; [15]): 85 | Plant response rating, Morningglory (morningglory [2]; [16]): 85 | Plant response rating (scale of 0 to 100 where 0 is no effect and 100 is complete control), Barnyardgrass (barnyardgrass; [13]): 5 | Barnyardgrass plant response rating (barnyardgrass; [14]): 5 | Plant response rating, Barnyardgrass (barnyardgrass; [15]): 65 | Plant response rating, Barnyardgrass (barnyardgrass; [16]): 30 | Nutsedge, Yellow plant response rating (nutsedge, yellow; [17]): 25 | Nutsedge, Yellow plant response rating (nutsedge, yellow; [18]): 55 | Plant response rating, Nutsedge, Yellow (nutsedge, yellow; [19]): 65 | Nutsedge, Yellow plant response rating (nutsedge, yellow; [20]): 65 | Plant response rating (scale of 0 to 100 where 0 is no effect and 100 is complete control), Galium (galium [3]; [13]): 75 | Galium plant response rating (galium [3]; [14]): 70 | Plant response rating, Galium (galium [3]; [15]): 90 | Plant response rating, Galium (galium [3]; [16]): 60 | Crabgrass, Large plant response rating (0 to 100 scale) (crabgrass, large [4]; 125 g ai/ha, visual injury approx. 10 days after treatment): 100 | Crabgrass, Large plant response rating (crabgrass, large [4]; 500 g ai/ha, visual injury after approx. 10 days, 0 to 100 scale (0 no effect, 100 complete control)): 100 | Plant response rating (scale of 0 to 100 where 0 is no effect and 100 is complete control), Blackgrass (blackgrass; [13]): 5 | Blackgrass plant response rating (blackgrass; [14]): 5 | Plant response rating, Blackgrass (blackgrass; [15]): 50 | Plant response rating, Blackgrass (blackgrass; [16]): 10 | Corn plant response rating (corn [5]; [17]): 0 | Corn plant response rating (corn [5]; [18]): 0 | Plant response rating, Corn (corn [5]; [19]): 35 | Corn plant response rating (corn [5]; [20]): 40 | Plant response rating (scale of 0 to 100 where 0 is no effect and 100 is complete control), Foxtail, Giant (foxtail, giant [6]; [13]): 5 | Foxtail, Giant plant response rating (foxtail, giant [6]; [14]): 5 | Plant response rating, Foxtail, Giant (foxtail, giant [6]; [15]): 20 | Plant response rating, Foxtail, Giant (foxtail, giant [6]; [16]): 15 | Foxtail, Giant plant response rating (foxtail, giant [7]; [11]): 100 | Foxtail, Giant plant response rating (foxtail, giant [7]; [12]): 100 | Waterhemp plant response rating (waterhemp; [17]): 100 | Waterhemp plant response rating (waterhemp; [18]): 100 | Plant response rating, Waterhemp (waterhemp; [19]): 100 | Waterhemp plant response rating (waterhemp; [20]): 100 | Crabgrass, Large plant response rating (crabgrass, large [8]; [11]): 100 | Crabgrass, Large plant response rating (crabgrass, large [8]; [12]): 100 | Ryegrass, Italian plant response rating (ryegrass, Italian; [17]): 5 | Ryegrass, Italian plant response rating (ryegrass, Italian; [18]): 30 | Plant response rating, Ryegrass, Italian (ryegrass, Italian; [19]): 70 | Ryegrass, Italian plant response rating (ryegrass, Italian; [20]): 80 | Galium plant response rating (galium [9]; [17]): 80 | Galium plant response rating (galium [9]; [18]): 80 | Plant response rating, Galium (galium [9]; [19]): 90 | Galium plant response rating (galium [9]; [20]): 80 | Wheat plant response rating (0 to 100 scale) (wheat): 80 | Morningglory plant response rating (morningglory [10]; [11]): 80 | Morningglory plant response rating (morningglory [10]; [12]): 100
